Source: patent US11534457B2, “Use of dextran sulfate” (priority 2017, dated 2022)

Tested on: trabecular meshwork (TM) scarring in glaucomatous eyes
Experiment: TGF-β induced glaucoma in rats, trabecular meshwork scarring (laminin, fibronectin immunohistochemistry)
Type: in vivo, Sprague Dawley rats
Method: Glaucoma was induced in adult male Sprague Dawley rats by repeat twice weekly intracameral (IC) injections of transforming growth factor-β (TGF-β) to increase intraocular pressure (IOP). Sustained increases in IOP (after two weeks) leads to death of retinal ganglion cells (30-40%). LMW-DS was administered at 15 mg/kg by daily subcutaneous injection […] to assess RGC protection compared to controls.
Group 1 n=12 rats; 24 eyes […] TGF-β (twice weekly for 28 days) between day 0 and day 28+ daily subcutaneous administration of dextran sulfate from day 14 to day 28.
Group 2 n=8 rats; 16 eyes IOP+IC TGF-β (twice weekly for 28 days) between day 0 and day 28+ daily subcutaneous administration of vehicle (saline) from day 14 to day 28.
Measured End-Points • IOP twice weekly throughout study from day 0 to day 28; • Immunohistochemistry for counting retinal ganglion cell (RGC) that are immunoreactive for brain-specific homeobox/POU domain protein 3A (Brn3a) at day 28 (RGC survival); • Immunohistochemistry for laminin and fibronectin to evaluate scarring in the trabecular meshwork at day 28 in Groups 1 and 2; • Anterior segment and optical coherence tomography (OCT) imaging at day 28 to examine the angle and the thickness of the retinal nerve fiber layer comprising RGC axons; and • Body weight at day 28. […]

low molecular weight dextran sulfate [LMW-DS]
immunoreactive laminin in the angle (TM scarring) vs saline (15 mg/kg daily s.c. day 14 to day 28, P<0.001): significantly reduced
immunoreactive fibronectin in the angle (TM scarring) vs saline (15 mg/kg daily s.c. day 14 to day 28, P<0.01): significantly reduced
